Experimental data as given in patent publication US9168306B2, “Drug delivery agents comprising cyclodextrin covalently linked to a gemini surfactant, and pharmaceutical compositions comprising the same” (University of Saskatchewan, priority 2011, dated 2015).
Where “and” joins values, the source holds several entries; their conditions need not be identical. Identical values can stand only once.

Legend:
A375 cells [1] = assay: Flow cytometry cell cycle analysis (propidium iodide); assay type: cell-based, human; settings: delivery agent alone as control, 14 μM; 48 h
Experimental: (§1) A375 cells at the second passage were seeded at a density of 1×10^6 cells per well in 6 well tissue culture-treated plates. Cells were incubated at 37° C. in a humidified incubator with 5% CO2 and 95% air, overnight. […] The resveratrol and sodium butyrate controls were used to calibrate the flow cytometer for cell cycle arrest in the A375 cell. All treatments were performed in triplicate wells. Cells were incubated with the formulations and controls for 48 h. All cells, floating and adherent, were collected, the triplicate wells pooled and washed in PBS. The cell populations were divided into two. Half of the cells was fixed in 70% ethanol for 2 h, washed twice in 300 μg/mL RNase A (Qiagen) in PBS. The cell pellet was resuspended in PBS and stained with propidium iodide, 20 μg/mL (Sigma). The other half of the cells was suspended in binding buffer and stained as per the Annexin V-FITC Apoptosis Detection Kit (BioVision) protocol.
(§2) Flow cytometry was performed with a FacsCalibur instrument (BD Biosciences). The treatment groups were analyzed using ModFit LT flow cytometry modeling software (Verity Software House, Inc) after gating the area of non-treated cells by excluding aggregates and debris.

[2] = Size and ζ-potential measurement of compositions (Zetasizer Nano ZS); assay type: physicochemical
Experimental: Due to their low solubility in water, for the in vitro testing, each drug was dissolved in dimethylsulfoxide (DMSO, Sigma) at 2 mM concentration. The drug was added at increasing concentrations of 0.01-200 μM to the supplemented media with the final DMSO concentration of 2% exposed to the cells. For the formulations, CD or CDgemini was dissolved in water (10 mM) and the drugs were dissolved in methanol (2 mM). The delivery agent to drug mole ratio was maintained at 2:1. The solvent mixture was evaporated in a rotary evaporator under vacuum and the residue was reconstituted in water. Samples were dispersed by sonication for 2 h and stored overnight at 4° C. Samples were re-sonicated, prior to diluting in supplemented media, for 15 min.
Compositions were prepared as described above. The size and ζ-potential of the particles were measured with a Zetasizer Nano ZS instrument (Malvern Instruments, UK). Results are reported as the mean of 3-5 measurements±standard deviations.

A375 cells [3] = assay: Flow cytometry apoptosis assay (Annexin V-FITC / propidium iodide); assay type: cell-based, human; settings: delivery agent alone as control, 14 μM; 48 h
Experimental: as §1, with “The other half of the cells was suspended in binding buffer and stained as per the Annexin V-FITC Apoptosis Detection Kit (BioVision) protocol.” left out
as §2
The type of cell death of the A375 cells after treatment of the compositions was captured by performing the apoptosis assay (as shown in FIG. 7). […] Apoptosis was measured by dual staining of the cells with Annexin V-FITC and propidium iodide. […]

[4] = Transmission electron microscopy of compositions; assay type: physicochemical
Experimental: Drug/CDgemini conjugates prepared for the size measurements were used for TEM. Aliquots of 10 μL samples were dropped onto 300-mesh formvar-coated copper grids (SPI Supplies) and incubated for 5 min at room temperature. The water was wicked off the grids with absorbent tissue and the grids were stained with 1% phosphotungstic acid for 2 min. The stain was removed and the grids were dried at room temperature for 15 min. The samples were examined with a Philips CM10 electron microscope at an accelerating voltage of 80 kV.

[5] = system: a number of cancer cells, including human SK-MEL-5 cells; settings: literature values; cited from earlier work

Row | SMILES | cells in G0/G1 (A375 cells [1]) | cells in S-phase (A375 cells [1]) | formation of supramolecular aggregates [2] | apoptosis, of the total population (A375 cells [3]) | size of particles in TEM images [4] | Particle size Peak 1 Intensity [2] | ζ potential [2] | Particle size Peak 1 ([2]; mean of 3-5 measurements ± SD) | PDI ([2]; polydispersity index) | cytotoxic concentrations [5]
1 | OC[C@H]1O[C@@H]2O[C@H]3[C@H](O)[C@@H](O)[C@@H](O[C@H]4[C@H](O)[C@@H](O)[C@@H](O[C@H]5[C@H](O)[C@@H](O)[C@@H](O[C@H]6[C@H](O)[C@@H](O)[C@@H](O[C@H]7[C@H](O)[C@@H](O)[C@@H](O[C@H]8[C@H](O)[C@@H](O)[C@@H](O[C@H]1[C@H](O)[C@H]2O)O[C@@H]8CO)O[C@@H]7CO)O[C@@H]6CO)O[C@@H]5CO)O[C@@H]4CO)O[C@@H]3CO [CD, β-Cyclodextrin, reference compound] | 56% | 43% | neither CD nor drug/CD conjugates formed supramolecular aggregates | 25% |  |  |  |  |  | 
2 | CCCCCCCCCCCC[N+](C)(C)CCCN(CCC[N+](C)(C)CCCCCCCCCCCC)C(=O)CCC(=O)OCC1OC2OC3C(CO)OC(OC4C(CO)OC(OC5C(CO)OC(OC6C(CO)OC(OC7C(CO)OC(OC8C(CO)OC(OC1C(O)C2O)C(O)C8O)C(O)C7O)C(O)C6O)C(O)C5O)C(O)C4O)C(O)C3O.[Cl-].[Cl-] (stereo not drawn) [CDgemini, [mono-6-o-(3{bis(3-(N-dodecyl-N,N-dimethylamino)-propyl)-carbamoyl}propanoyl)-beta-cyclodextrin]^2+] | 65% | 35% |  | 31% | 100-150 nm | 100% | 5.74±0.53 mV and 5.7 ± 0.5 mV | 153.6±4.3 nm | 0.2 | 
3 | N[C@@H](Cc1ccc(N(CCCl)CCCl)cc1)C(=O)O [melphalan] |  |  |  |  |  |  |  |  |  | 52 to 219 µM
